US20230293644A1, “ANTI-INFLAMMATORY PEPTIDES AND COMPOSITION COMPRISING THE SAME” (Gemvax & KAEL Co., Ltd., priority 2012, published 2023)

System: TNF-α
Test: Screening of TNF-α inhibitory effect, LPS-stimulated PBMC-derived monocytes (Example 2)
Type: cell-based, human
Settings: 4 uM peptide, 2 hrs, LPS 10 ng/ml; for TNF-α inhibiting effect compared to the group treated with LPS and estrogen: estrogen 20 nM
Procedure: PBMC (peripheral blood mononuclear cells) layer was separated from blood samples (50 ml) collected in healthy subjects using Biocoll Separating Solution (Biochrom AG, Berlin, Germany). The collected PBMC were enriched in RPMI 1640 medium containing 20% human serum for 30 mins, and then transferred to 100-mm polystyeren cell culture plate coated with human serum for incubation for 2 hrs at 37° C., 5% CO^2 incubator. Monocytes were detached from the bottom of the plate using cold PBS, and incubated to reach the number of 1 × 10^5 cell/well in 96-well plate with RPMI 1640 medium (supplemented with penicillinstreptomycin; […], human serum; 20%) over night.
ELISA was performed to find out how the peptides of the PEP RIA series influence TNF-α level. PBMC-derived monocytes were incubated to reach the number of 1 × 10^5 cells per well in a 96-well plate and then treated with LPS (lipopolysaccharide; 10 ng/ml, Sigma) for 2 hours. To the monocytes that were washed three times with PBS, OPTI-MEM culture medium was added to induce cell starvation for an hour, 4 µM of the peptide was taken out and incubated for 2 hours. There were three negative control groups. The first group was not treated with anything. The second group that was treated with estrogen (in this experiment, estradiol was used as a kind of estrogen). The third group was treated with LPS (10 ng/ml) or with LPS (10 ng/ml) as well as estrogen (20 nM). PEP1 that was confirmed to have TNF-α inhibiting activity was used as a positive control to measure TNF-α inhibiting activity. After incubation, TNF-α was measured by following the ELISA kit manual (R&D, Minneapolis, MN, USA). The details of quantification method can be found in Experiment 2.2 of Example 1.
Using the method stated above, Peptides with TNF-α inhibiting effect were screened. PBMC-derived monocytes were stimulated with LPS (10 ng/ml), which is endotoxin, for 2 hours and were induced to starve by adding OPTI-MEM for 1 hour. After that, 4 uM of 179 peptides were treated and incubated for 2 hrs. The amount of TNF-α in the cell culture medium was measured using ELISA, and the peptides with TNF-α inhibiting effect were screened by comparing to the negative and positive controls (FIG. 3 to FIG. 23).

Substance	TNF-α inhibiting effect compared to the control group treated with only LPS	TNF-α inhibiting effect compared to the group treated with LPS and estrogen
AEVRQHREARPALLTSRLRFIPKPDG (listed as Homo sapiens) [SEQ ID NO: 54]	showed TNF-α inhibiting effect	showed TNF-α inhibiting effect
AEVRQHREARPALLTSRLRFIPKPDGL (listed as Homo sapiens) [SEQ ID NO: 55]	showed TNF-α inhibiting effect	showed TNF-α inhibiting effect
AEVRQHREARPALLTSRLRFIPKPDGLR (listed as Homo sapiens) [SEQ ID NO: 56]	showed TNF-α inhibiting effect	showed TNF-α inhibiting effect
AEVRQHREARPALLTSRLRFIPKPDGLRP (listed as Homo sapiens) [SEQ ID NO: 57]	showed TNF-α inhibiting effect	
AEVRQHREARPALLTSRLRFIPKPDGLRPI (listed as Homo sapiens) [SEQ ID NO: 58]	showed TNF-α inhibiting effect	
ALLTSR (listed as Homo sapiens) [SEQ ID NO: 142]	showed TNF-α inhibiting effect	
ALLTSRL (listed as Homo sapiens) [SEQ ID NO: 141]	showed TNF-α inhibiting effect	
ALLTSRLRF (listed as Homo sapiens) [SEQ ID NO: 140]	showed TNF-α inhibiting effect	showed TNF-α inhibiting effect
ARPA (listed as Homo sapiens) [SEQ ID NO: 119]	showed TNF-α inhibiting effect	
ARPAL (listed as Homo sapiens) [SEQ ID NO: 118]	showed TNF-α inhibiting effect	
ARPALL (listed as Homo sapiens) [SEQ ID NO: 117]	showed TNF-α inhibiting effect	showed TNF-α inhibiting effect
ARPALLT (listed as Homo sapiens) [SEQ ID NO: 116]	showed TNF-α inhibiting effect	showed TNF-α inhibiting effect
ARPALLTSRLRF (listed as Homo sapiens) [SEQ ID NO: 111]	showed TNF-α inhibiting effect	
ARPALLTSRLRFI (listed as Homo sapiens) [SEQ ID NO: 110]	showed TNF-α inhibiting effect	showed TNF-α inhibiting effect
ARPALLTSRLRFIP (listed as Homo sapiens) [SEQ ID NO: 104]	showed TNF-α inhibiting effect	
ARPALLTSRLRFIPK (listed as Homo sapiens) [SEQ ID NO: 91]	showed TNF-α inhibiting effect	showed TNF-α inhibiting effect
EAEVRQHREARPALLTSRLRFIPK (listed as Homo sapiens) [SEQ ID NO: 9]	showed TNF-α inhibiting effect	showed TNF-α inhibiting effect
EAR [SEQ ID NO: 90]	showed TNF-α inhibiting effect	showed TNF-α inhibiting effect
EARP (listed as Homo sapiens) [SEQ ID NO: 89]	showed TNF-α inhibiting effect	showed TNF-α inhibiting effect
EARPA (listed as Homo sapiens) [SEQ ID NO: 88]	showed TNF-α inhibiting effect	showed TNF-α inhibiting effect

Substance	TNF-α inhibiting effect compared to the control group treated with only LPS	TNF-α inhibiting effect compared to the group treated with LPS and estrogen
EARPALLTS (listed as Homo sapiens) [SEQ ID NO: 84]	showed TNF-α inhibiting effect	
EARPALLTSR (listed as Homo sapiens) [SEQ ID NO: 83]	showed TNF-α inhibiting effect	showed TNF-α inhibiting effect
EARPALLTSRL (listed as Homo sapiens) [SEQ ID NO: 82]	showed TNF-α inhibiting effect	showed TNF-α inhibiting effect
EARPALLTSRLR (listed as Homo sapiens) [SEQ ID NO: 81]	showed TNF-α inhibiting effect	showed TNF-α inhibiting effect
EARPALLTSRLRF (listed as Homo sapiens) [SEQ ID NO: 80]	showed TNF-α inhibiting effect	showed TNF-α inhibiting effect
EARPALLTSRLRFIPKP (listed as Homo sapiens) [SEQ ID NO: 65]	showed TNF-α inhibiting effect	showed TNF-α inhibiting effect
EARPALLTSRLRFIPKPD (listed as Homo sapiens) [SEQ ID NO: 66]	showed TNF-α inhibiting effect	
EARPALLTSRLRFIPKPDGLRPI (listed as Homo sapiens) [SEQ ID NO: 70]	showed TNF-α inhibiting effect	showed TNF-α inhibiting effect
EARPALLTSRLRFIPKPDGLRPIV (listed as Homo sapiens) [SEQ ID NO: 71]	showed TNF-α inhibiting effect	showed TNF-α inhibiting effect
EARPALLTSRLRFIPKPDGLRPIVN (listed as Homo sapiens) [SEQ ID NO: 72]	showed TNF-α inhibiting effect	showed TNF-α inhibiting effect
EARPALLTSRLRFIPKPDGLRPIVNMD (listed as Homo sapiens) [SEQ ID NO: 74]	showed TNF-α inhibiting effect	
ELSEAEVRQHREARPALLTSRLRFIPK (listed as Homo sapiens) [SEQ ID NO: 12]	showed TNF-α inhibiting effect	
EVRQHREARPALLTSRLRFIPKPD (listed as Homo sapiens) [SEQ ID NO: 42]	showed TNF-α inhibiting effect	showed TNF-α inhibiting effect
EVRQHREARPALLTSRLRFIPKPDG (listed as Homo sapiens) [SEQ ID NO: 43]	showed TNF-α inhibiting effect	showed TNF-α inhibiting effect
EVRQHREARPALLTSRLRFIPKPDGL (listed as Homo sapiens) [SEQ ID NO: 44]	showed TNF-α inhibiting effect	showed TNF-α inhibiting effect
EVRQHREARPALLTSRLRFIPKPDGLR (listed as Homo sapiens) [SEQ ID NO: 45]	showed TNF-α inhibiting effect	
EVRQHREARPALLTSRLRFIPKPDGLRP (listed as Homo sapiens) [SEQ ID NO: 46]	showed TNF-α inhibiting effect	
FIPK (listed as Homo sapiens) [SEQ ID NO: 102]	showed TNF-α inhibiting effect	showed TNF-α inhibiting effect
HREARPALLTSRLRFIPKP (listed as Homo sapiens) [SEQ ID NO: 17]	showed TNF-α inhibiting effect	showed TNF-α inhibiting effect
HREARPALLTSRLRFIPKPD (listed as Homo sapiens) [SEQ ID NO: 18]	showed TNF-α inhibiting effect	showed TNF-α inhibiting effect
